Assay results reported in patent US20080009418A1, “Selective Inhibitors” (Alchemia LTD., priority 2004, published 2008).

Assays:
Human δ-opioid (DOP) = target: T1, Human δ-opioid (DOP) (Homo sapiens, UniProt P41143); assay: Radioligand binding, human δ-opioid (DOP) membranes, FlashPlate, [3H]-Bremazocine; details: compound at 10 μM; human δ-opioid (DOP) membranes
T1 construct: purchased Perkin Elmer Biosignal
Procedure, shortened: (§1)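 Cloned human receptor membranes were coated onto FlashPlate wells and incubated with radioligand and compound (added from a 0.5 mM DMSO daughter plate) for 1 hour at room temperature in the dark. Scintillation counting gave percent inhibition, with DMSO defining total and reference ligand defining non-specific binding.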

Human κ-Opioid (KOP) = target: T2, Human κ-Opioid (KOP) (Homo sapiens, UniProt P41145); assay: Radioligand binding, human κ-opioid (KOP) membranes, filtration, [3H]-Diprenorphine; details: compound at 10 μM; human κ-opioid (KOP) membranes
T2 construct: purchased Perkin Elmer Biosignal
T2 sequence (P41145 whole entry): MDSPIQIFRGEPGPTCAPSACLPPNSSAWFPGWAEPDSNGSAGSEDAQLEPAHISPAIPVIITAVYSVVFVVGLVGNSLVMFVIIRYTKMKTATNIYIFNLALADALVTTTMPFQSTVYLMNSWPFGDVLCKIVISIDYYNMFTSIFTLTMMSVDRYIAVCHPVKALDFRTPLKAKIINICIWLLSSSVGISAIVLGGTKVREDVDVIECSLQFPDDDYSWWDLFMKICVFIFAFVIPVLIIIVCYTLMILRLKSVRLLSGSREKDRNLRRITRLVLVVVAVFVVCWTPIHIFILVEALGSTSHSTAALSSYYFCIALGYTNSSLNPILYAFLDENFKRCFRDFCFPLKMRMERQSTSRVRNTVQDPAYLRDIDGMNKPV
Procedure, shortened: (§2)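 Filtration binding on cloned human receptor membranes (1 Unit/well), [125I]-Substance P for NK1 and [3H]-Diprenorphine for KOP, 1 h at room temperature. Filters PEI-presoaked, washed with cold 50 mM Tris-HCl pH 7.4, counted by scintillation; percent inhibition calculated, reference ligand defining non-specific binding.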

Human Melanocortin (MC3) = target: T3, Human Melanocortin (MC3) (Homo sapiens, UniProt P41968); assay: Radioligand binding, human melanocortin MC3 membranes, FlashPlate, [125I]-NDP-αMSH; details: compound at 10 μM; human melanocortin MC3 membranes
T3 construct: purchased Perkin Elmer Biosignal
T3 sequence (P41968 whole entry): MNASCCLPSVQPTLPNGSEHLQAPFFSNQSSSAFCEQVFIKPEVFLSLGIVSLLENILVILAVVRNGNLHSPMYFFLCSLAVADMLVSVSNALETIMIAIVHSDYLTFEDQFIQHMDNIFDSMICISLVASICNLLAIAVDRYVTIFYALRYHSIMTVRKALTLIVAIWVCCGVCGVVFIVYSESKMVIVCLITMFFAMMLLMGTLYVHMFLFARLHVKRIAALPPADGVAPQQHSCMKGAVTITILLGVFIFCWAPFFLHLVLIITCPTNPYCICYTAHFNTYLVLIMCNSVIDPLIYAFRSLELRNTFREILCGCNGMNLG
Procedure, shortened: as §1

Human Melanocortin (MC4) = target: T4, Human Melanocortin (MC4) (Homo sapiens, UniProt P32245); assay: Radioligand binding, human melanocortin MC4 membranes, FlashPlate, [125I]-NDP-αMSH; details: compound at 10 μM; human melanocortin MC4 membranes
T4 construct: purchased Perkin Elmer Biosignal
T4 sequence (P32245 whole entry): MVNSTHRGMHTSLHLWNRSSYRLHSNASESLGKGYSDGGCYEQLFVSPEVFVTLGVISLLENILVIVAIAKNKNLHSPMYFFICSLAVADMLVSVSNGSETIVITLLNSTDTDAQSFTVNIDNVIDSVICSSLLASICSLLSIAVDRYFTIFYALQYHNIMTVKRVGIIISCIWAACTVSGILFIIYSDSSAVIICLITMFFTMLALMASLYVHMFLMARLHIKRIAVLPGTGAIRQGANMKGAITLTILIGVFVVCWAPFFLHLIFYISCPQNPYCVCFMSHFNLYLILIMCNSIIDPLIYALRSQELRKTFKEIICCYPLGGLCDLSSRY
Procedure, shortened: as §1

Human melanocortin (MC5) = target: T5, Human melanocortin (MC5) (Homo sapiens, UniProt P33032); assay: Radioligand binding, human melanocortin MC5 membranes, FlashPlate, [125I]-NDP-αMSH; details: compound at 10 μM; human melanocortin MC5 membranes
T5 construct: purchased Perkin Elmer Biosignal
T5 sequence (P33032 whole entry): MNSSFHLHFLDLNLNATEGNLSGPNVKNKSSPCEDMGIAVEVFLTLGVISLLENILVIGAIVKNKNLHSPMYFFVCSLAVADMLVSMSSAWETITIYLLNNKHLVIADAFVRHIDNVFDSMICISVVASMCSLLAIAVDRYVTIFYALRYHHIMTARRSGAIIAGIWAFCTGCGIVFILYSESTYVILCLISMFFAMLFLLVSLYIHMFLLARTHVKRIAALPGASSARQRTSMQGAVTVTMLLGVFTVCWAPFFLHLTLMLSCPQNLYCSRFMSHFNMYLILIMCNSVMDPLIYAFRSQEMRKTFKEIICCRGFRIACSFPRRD
Procedure, shortened: as §1

[1] = target: T6, Human melanin-concentrating hormone (MCH1) (Homo sapiens, UniProt Q99705); assay: Radioligand binding, human melanin-concentrating hormone MCH1 membranes, FlashPlate, [125I]-S36057; details: compound at 10 μM; human MCH1 membranes
T6 construct: purchased Perkin Elmer Biosignal
T6 sequence (Q99705 whole entry): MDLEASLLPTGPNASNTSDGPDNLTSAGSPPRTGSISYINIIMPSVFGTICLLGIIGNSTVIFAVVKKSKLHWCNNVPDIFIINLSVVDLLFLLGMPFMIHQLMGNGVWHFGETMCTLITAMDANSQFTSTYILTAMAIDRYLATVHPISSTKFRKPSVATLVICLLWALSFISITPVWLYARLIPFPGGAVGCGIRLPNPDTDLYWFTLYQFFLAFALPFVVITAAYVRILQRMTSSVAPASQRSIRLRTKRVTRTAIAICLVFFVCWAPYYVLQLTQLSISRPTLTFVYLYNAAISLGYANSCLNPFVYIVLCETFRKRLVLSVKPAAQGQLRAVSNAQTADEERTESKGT
Procedure, shortened: as §1

Human μ-opioid (MOP) = target: T7, Human μ-opioid (MOP) (Homo sapiens, UniProt P35372); assay: Radioligand binding, human μ-opioid (MOP) membranes, FlashPlate, [3H]-Naloxone; details: compound at 10 μM; human μ-opioid (MOP) membranes
T7 construct: purchased Perkin Elmer Biosignal
T7 sequence (P35372 whole entry): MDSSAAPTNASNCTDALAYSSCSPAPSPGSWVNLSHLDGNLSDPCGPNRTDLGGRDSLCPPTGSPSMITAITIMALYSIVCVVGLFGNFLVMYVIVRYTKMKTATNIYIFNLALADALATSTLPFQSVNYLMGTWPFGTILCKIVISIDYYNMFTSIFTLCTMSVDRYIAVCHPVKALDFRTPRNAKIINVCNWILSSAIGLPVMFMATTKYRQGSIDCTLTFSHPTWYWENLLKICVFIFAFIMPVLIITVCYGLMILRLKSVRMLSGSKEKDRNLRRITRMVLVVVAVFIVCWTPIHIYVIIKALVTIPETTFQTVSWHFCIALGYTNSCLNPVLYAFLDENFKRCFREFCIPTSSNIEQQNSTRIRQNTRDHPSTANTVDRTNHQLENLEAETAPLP
Procedure, shortened: as §1

Human neurokinin (NK1) = target: T8, Human neurokinin (NK1) (Homo sapiens, UniProt P25103); assay: Radioligand binding, human neurokinin NK1 membranes, filtration, [125I]-Substance P; details: compound at 10 μM; human neurokinin NK1 membranes
T8 construct: purchased Perkin Elmer Biosignal
T8 sequence (P25103 whole entry): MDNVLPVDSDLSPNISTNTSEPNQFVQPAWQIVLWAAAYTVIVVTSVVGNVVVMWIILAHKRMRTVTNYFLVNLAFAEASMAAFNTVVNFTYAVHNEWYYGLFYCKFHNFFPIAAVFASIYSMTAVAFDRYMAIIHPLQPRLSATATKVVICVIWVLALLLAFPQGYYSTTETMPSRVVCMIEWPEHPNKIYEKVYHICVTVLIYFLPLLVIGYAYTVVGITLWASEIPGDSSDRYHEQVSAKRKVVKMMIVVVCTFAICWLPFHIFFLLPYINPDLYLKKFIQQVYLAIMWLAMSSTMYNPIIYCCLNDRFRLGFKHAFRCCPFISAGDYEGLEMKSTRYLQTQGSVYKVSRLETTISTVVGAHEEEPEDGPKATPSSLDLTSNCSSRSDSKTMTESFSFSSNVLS
Procedure, shortened: as §2

[2] = target: T9, Human neuropeptide Y (NPY-Y1) (Homo sapiens, UniProt P25929); assay: Radioligand binding, human neuropeptide Y NPY-Y1 membranes, FlashPlate, [125I]-PYY; details: compound at 10 μM; human NPY-Y1 membranes
T9 construct: purchased Perkin Elmer Biosignal
T9 sequence (P25929 1-384): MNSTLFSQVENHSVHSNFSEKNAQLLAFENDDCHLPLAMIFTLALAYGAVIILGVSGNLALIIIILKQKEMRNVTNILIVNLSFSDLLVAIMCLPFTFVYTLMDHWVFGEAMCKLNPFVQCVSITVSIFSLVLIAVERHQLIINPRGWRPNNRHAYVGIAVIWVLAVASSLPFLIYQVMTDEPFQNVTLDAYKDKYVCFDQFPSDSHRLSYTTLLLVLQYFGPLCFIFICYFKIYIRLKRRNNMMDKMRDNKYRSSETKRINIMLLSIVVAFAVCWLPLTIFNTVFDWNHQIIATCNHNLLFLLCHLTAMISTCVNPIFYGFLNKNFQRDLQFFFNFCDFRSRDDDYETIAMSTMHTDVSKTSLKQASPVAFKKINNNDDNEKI
Procedure, shortened: as §1

Human opioid (ORL1) = target: T10, Human opioid (ORL1) (Homo sapiens, UniProt P41146); assay: Radioligand binding, human opioid ORL1 membranes, FlashPlate, [125I]-Nociceptin; details: compound at 10 μM; human ORL1 membranes
T10 construct: purchased Perkin Elmer Biosignal
T10 sequence (P41146 whole entry): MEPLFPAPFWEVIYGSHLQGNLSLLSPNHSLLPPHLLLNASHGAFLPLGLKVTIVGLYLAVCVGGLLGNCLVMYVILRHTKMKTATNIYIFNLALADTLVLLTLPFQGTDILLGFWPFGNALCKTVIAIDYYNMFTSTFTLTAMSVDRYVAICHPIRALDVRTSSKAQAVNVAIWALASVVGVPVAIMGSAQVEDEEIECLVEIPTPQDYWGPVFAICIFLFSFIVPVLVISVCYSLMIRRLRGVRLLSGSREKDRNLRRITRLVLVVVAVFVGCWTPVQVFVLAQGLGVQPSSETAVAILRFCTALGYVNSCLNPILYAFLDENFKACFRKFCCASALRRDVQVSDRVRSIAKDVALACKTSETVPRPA
Procedure, shortened: as §1

Mouse urotensin (mUR2) = target: T11, Mouse urotensin (mUR2) (Mus musculus, UniProt Q8VIH9); assay: Radioligand binding, mouse urotensin mUR2 membranes, FlashPlate, [125I]-Urotensin II; details: compound at 10 μM; mouse urotensin mUR2 membranes
T11 construct: purchased Perkin Elmer Biosignal
T11 sequence (Q8VIH9 1-385): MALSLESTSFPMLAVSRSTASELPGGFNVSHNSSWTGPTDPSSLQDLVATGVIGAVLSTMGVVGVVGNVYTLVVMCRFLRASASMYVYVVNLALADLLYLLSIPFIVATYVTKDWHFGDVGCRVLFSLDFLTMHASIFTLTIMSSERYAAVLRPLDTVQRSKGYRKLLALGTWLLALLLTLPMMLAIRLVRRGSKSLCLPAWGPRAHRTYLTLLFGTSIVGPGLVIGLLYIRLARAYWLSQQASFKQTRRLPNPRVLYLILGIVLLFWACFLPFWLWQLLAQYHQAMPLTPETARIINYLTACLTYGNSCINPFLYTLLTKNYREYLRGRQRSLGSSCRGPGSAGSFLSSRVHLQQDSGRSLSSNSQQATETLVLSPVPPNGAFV
Procedure, shortened: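 Cloned mouse urotensin (mUR2) receptor membranes from Perkin Elmer Biosignal were immobilized in FlashPlate microplates using a proprietary coating. Each well got 19.5 μl buffer, then 0.5 μl of DMSO, reference ligand, or compound. Adding 5 μl of [125I]-Urotensin II, diluted to 5× final concentration in binding buffer, started binding. Plates were sealed with TopSeal-A and incubated 1 hour at room temperature in the dark. Wells were counted for 30 seconds each on a TopCount after a 60-second delay, and percentage inhibition was calculated.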

T1 sequence (P41143 whole entry): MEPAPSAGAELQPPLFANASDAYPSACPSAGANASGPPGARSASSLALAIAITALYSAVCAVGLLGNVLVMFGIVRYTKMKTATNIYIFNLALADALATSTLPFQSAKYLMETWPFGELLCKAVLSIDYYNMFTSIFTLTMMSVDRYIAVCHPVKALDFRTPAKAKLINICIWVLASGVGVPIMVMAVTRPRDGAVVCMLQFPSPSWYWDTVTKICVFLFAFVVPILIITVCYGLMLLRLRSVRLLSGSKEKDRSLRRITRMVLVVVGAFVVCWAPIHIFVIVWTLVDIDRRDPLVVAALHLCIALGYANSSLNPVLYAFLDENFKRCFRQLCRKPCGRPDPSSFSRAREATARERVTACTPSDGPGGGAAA

| SMILES | A1 radioligand binding inhibition (Human δ-opioid (DOP)) | A2 radioligand binding inhibition (Human κ-Opioid (KOP)) | A3 radioligand binding inhibition (Human Melanocortin (MC3)) | A4 radioligand binding inhibition (Human Melanocortin (MC4)) | A5 radioligand binding inhibition (Human melanocortin (MC5)) | A6 radioligand binding inhibition [1] | A7 radioligand binding inhibition (Human μ-opioid (MOP)) | A8 radioligand binding inhibition (Human neurokinin (NK1)) | A9 radioligand binding inhibition [2] | A10 radioligand binding inhibition (Human opioid (ORL1)) | A11 radioligand binding inhibition (Mouse urotensin (mUR2)) |
| --- | --- | --- | --- | --- | --- | --- | --- | --- | --- | --- | --- |
| COC[C@H]1OC(OCc2ccc(-c3ccccc3)cc2)[C@H](NC(=O)CCNC(=N)N)[C@@H](OCc2ccc(Cl)cc2)[C@@H]1O (stereo partly shown) [compound 11] | + (“+” indicates greater than 50% inhibition at 10 μM) | + (“+” indicates greater than 50% inhibition at 10 μM) | − (“−” indicates less than 50% inhibition at 10 μM) | + (“+” indicates greater than 50% inhibition at 10 μM) | + (“+” indicates greater than 50% inhibition at 10 μM) | + (“+” indicates greater than 50% inhibition at 10 μM) | + (“+” indicates greater than 50% inhibition at 10 μM) | + (“+” indicates greater than 50% inhibition at 10 μM) | − (“−” indicates less than 50% inhibition at 10 μM) | − (“−” indicates less than 50% inhibition at 10 μM) | − (“−” indicates less than 50% inhibition at 10 μM) |
| COC[C@H]1OC(OCc2ccc(-c3ccccc3)cc2)[C@H](NC(=O)CCCN)[C@@H](OCc2ccc(Cl)cc2)[C@@H]1O (stereo partly shown) [compound 12] | − (“−” indicates less than 50% inhibition at 10 μM) | − (“−” indicates less than 50% inhibition at 10 μM) | − (“−” indicates less than 50% inhibition at 10 μM) | − (“−” indicates less than 50% inhibition at 10 μM) | − (“−” indicates less than 50% inhibition at 10 μM) | − (“−” indicates less than 50% inhibition at 10 μM) | − (“−” indicates less than 50% inhibition at 10 μM) | + (“+” indicates greater than 50% inhibition at 10 μM) | − (“−” indicates less than 50% inhibition at 10 μM) | − (“−” indicates less than 50% inhibition at 10 μM) | − (“−” indicates less than 50% inhibition at 10 μM) |
| COC[C@H]1OC(OCc2ccc(-c3ccccc3)cc2)[C@H](NC(=O)CCCNC(=N)N)[C@@H](OCc2ccc(Cl)cc2)[C@@H]1O (stereo partly shown) [compound 13] | − (“−” indicates less than 50% inhibition at 10 μM) | − (“−” indicates less than 50% inhibition at 10 μM) | − (“−” indicates less than 50% inhibition at 10 μM) | − (“−” indicates less than 50% inhibition at 10 μM) | + (“+” indicates greater than 50% inhibition at 10 μM) | + (“+” indicates greater than 50% inhibition at 10 μM) | + (“+” indicates greater than 50% inhibition at 10 μM) | + (“+” indicates greater than 50% inhibition at 10 μM) | − (“−” indicates less than 50% inhibition at 10 μM) | − (“−” indicates less than 50% inhibition at 10 μM) | − (“−” indicates less than 50% inhibition at 10 μM) |
| COC[C@H]1OC(OCc2ccc3ccccc3c2)[C@H](NC(=O)CNC(=N)N)[C@@H](OCc2ccc(-c3ccccc3)cc2)[C@@H]1O (stereo partly shown) [compound 14] | − (“−” indicates less than 50% inhibition at 10 μM) | − (“−” indicates less than 50% inhibition at 10 μM) | − (“−” indicates less than 50% inhibition at 10 μM) | + (“+” indicates greater than 50% inhibition at 10 μM) | + (“+” indicates greater than 50% inhibition at 10 μM) | + (“+” indicates greater than 50% inhibition at 10 μM) | + (“+” indicates greater than 50% inhibition at 10 μM) | − (“−” indicates less than 50% inhibition at 10 μM) | − (“−” indicates less than 50% inhibition at 10 μM) | − (“−” indicates less than 50% inhibition at 10 μM) | − (“−” indicates less than 50% inhibition at 10 μM) |
| COC[C@H]1OC(OCc2ccc3ccccc3c2)[C@H](NC(=O)CNC(=N)N)[C@@H](OCc2ccc(-c3ccccc3)cc2)[C@@H]1O (stereo partly shown) [compound 15] | − (“−” indicates less than 50% inhibition at 10 μM) | − (“−” indicates less than 50% inhibition at 10 μM) | − (“−” indicates less than 50% inhibition at 10 μM) | + (“+” indicates greater than 50% inhibition at 10 μM) | + (“+” indicates greater than 50% inhibition at 10 μM) | + (“+” indicates greater than 50% inhibition at 10 μM) | + (“+” indicates greater than 50% inhibition at 10 μM) | − (“−” indicates less than 50% inhibition at 10 μM) | − (“−” indicates less than 50% inhibition at 10 μM) | − (“−” indicates less than 50% inhibition at 10 μM) | − (“−” indicates less than 50% inhibition at 10 μM) |
